From patent US20250375417A1, “OREXIN RECEPTOR 2 (OX2R) AGONIST FOR USE IN NARCOLEPSY TYPE 1 (NT1)” (TAKEDA PHARMACEUTICAL COMPANY LIMITED, priority 2024, published 2025)

What was measured:
Assay type in all cases: in vivo, human
participants with NT1 [1] = assay: Psychomotor vigilance test (PVT), sustained attention, Phase 2 NT1 trial
Excerpt: The psychomotor vigilance test (PVT) is validated as a clinical outcome assessment of the ability to sustain attention. The PVT is a simple reaction performance task that aims to measure sustained attention with no learning effects over repeated administration. Differences between healthy controls and patients with narcolepsy have been found on PVT performance for reaction time, accuracy, and other measures. The PVT is sensitive to the effects of total sleep loss, partial sleep restriction, naps, and circadian variation in the healthy population. The duration of test is 10 minutes.
Outcomes of this study included a performance-based test of attention, the Psychomotor Vigilance Task (PVT; administered 1 and 7 hours post first dose, assessed at baseline and weeks 4 and 8) and two assessments of EDS: the Maintenance of Wakefulness Test (MWT; administered 2, 4, 6, and 8 hours post first dose, assessed over 4 sessions) and the Epworth Sleepiness Scale (ESS; using a 7-day recall period, assessed at baseline and weeks 2, 4, and 8). At baseline, associations between attention (as measured by number of PVT lapses), and objective (MWT) and subjective (ESS) measures of EDS were computed. For PVT and MWT, covariation in change throughout the day at end of study was investigated. The effect of different Compound A doses on wakefulness and attention were compared for each outcome. […]

participants with NT1 [2] = assay: Weekly cataplexy rate (WCR), Phase 2 NT1 trial
Experimental: In some aspects of the methods described herein, the subject experiences a lower weekly cataplexy rate (WCR) after a treatment period compared to an untreated subject.
Cataplexy events are recorded for 14 consecutive days, starting after completion of washout of any anti-cataplexy medications and completed before Day-2 are considered for WCR study entry criterion. The total number of events/week (WCR) is calculated based on the number of cataplexy episodes averaged over 2 weeks, with at least 11 out of 14 days required to calculate the WCR.
Randomization was stratified by region. Starting on the morning of Day 1, the study drug was administered at approximately the same time each day for 8 or 12 weeks. If the participant wished to enroll in the long-term extension (LTE) study described in Example 3 but the LTE study had not started at the participant's site when the participant completed the Week 8 visit of the current study, the participant was allowed to continue in the current study for an additional 4 weeks.
The following doses were studied: • Compound A Dose Regimen 1:0.5 mg twice daily approximately 3 hours apart. • Compound A Dose Regimen 2:2 mg twice daily approximately 3 hours apart. • Compound A Dose Regimen 3:2 mg followed by 5 mg approximately 3 hours apart. • Compound A Dose Regimen 4:7 mg once daily (QD). • Other products required for the study: Matching placebo. […]

participants with NT1 [3] = assay: Safety and tolerability (TEAEs), Phase 2 NT1 trial
Excerpt: Standard safety endpoints (e,g., treatment […] adverse events (TEAEs), physical examination findings, vital signs, 12-lead ECG measures, clinical laboratory results) for early clinical investigation were included. Further, because cardiovascular effects have been noted in nonclinical models with Compound A and OX2R agonists in general, and these effects are thought to be on-target effects, close monitoring of cardiovascular parameters, including time-matched BP measurements before and after dosing to detect any changes and potential tolerance in BP after the administration of repeat doses to participants with NT1 were included. Ambulatory blood pressure monitoring (ABPM) was also obtained to assess BP in the outpatient setting in a rigorous manner.
In addition, because liver function test (LFT) elevation cases have been observed in another OX2R agonist with structural similarity, LFTs (ALT, AST, GGT, and total bilirubin) were closely monitored.
The following doses were studied: • Compound A Dose Regimen 1:0.5 mg twice daily approximately 3 hours apart. • Compound A Dose Regimen 2:2 mg twice daily approximately 3 hours apart. • Compound A Dose Regimen 3:2 mg followed by 5 mg approximately 3 hours apart. • Compound A Dose Regimen 4:7 mg once daily (QD). • Other products required for the study: Matching placebo.
Endpoints included change from baseline to Week 8 in mean sleep onset latency on the Maintenance of Wakefulness Test (SOL-MWT; primary endpoint), ESS total score, weekly cataplexy rate (WCR), and occurrence of treatment-emergent adverse events (TEAEs).

[4] = Compound A-treated participants

SMILES: CCS(=O)(=O)N[C@@H]1[C@H](Cc2cccc(-c3cc(F)cc(F)c3)c2F)N(C(=O)C(C)(C)O)CC1(F)F [Compound A, N-{(2S,3R)-4,4-difluoro-1-(2-hydroxy-2-methylpropanoyl)-2-[(2,3′,5′-trifluoro[1,1′-biphenyl]-3-yl)methyl]pyrrolidin-3-yl}ethanesulfonamide]
- PVT lapses, least squares mean differences from placebo (participants with NT1 [1]; all Compound A doses, 1 hour and 7 hours post-first dose (p<0.05)): significant
- Attention (PVT lapses) (participants with NT1 [1]; week 8, all doses (all p<0.05)): improved attention across all doses
- Change from baseline to Week 8 in WCR versus placebo (participants with NT1 [2]; 2 mg/2 mg and 2 mg/5 mg dose groups, adjusted for multiple comparisons): statistically significant changes
- Median WCR versus placebo (participants with NT1 [2]; twice daily dosing (FIG. 5)): significantly reduced cataplexy events
- Adverse events of mild to moderate insomnia, participants (participants with NT1 [3]; [4]): 48%
- Time to resolution of most insomnia adverse events (participants with NT1 [3]; [4]): ≤ 1 week
- Most common TEAEs (participants with NT1 [3]; Phase 2): urinary urgency/frequency and insomnia
- Hepatotoxicity or visual disturbances (participants with NT1 [3]; Phase 2, 8 weeks): No cases of hepatotoxicity or visual disturbances were reported
- Tolerability (participants with NT1 [3]; Phase 2, 8 weeks): generally well tolerated
- Occurrence of TEAEs (participants with NT1 [3]; all Compound A doses (70/90 patients), 8 weeks): 77.8%
- Treatment-related serious TEAEs or discontinuations due to TEAEs (participants with NT1 [3]; during the study): No treatment-related serious TEAEs or discontinuations due to TEAEs occurred
